Laboratory results as given in publication PMC2875304 (Experimental parasitology, 2010).
pIC50: −log10 of the molar value. Like-named read-outs stand apart in the source and are kept apart here. No end group written: not given here.

Key:
[1] = system: Trypanosoma cruzi (M/HOM/AR/74/CA-I CL72); format: cell-based; conditions: for pIC50: 50% reduction in untreated-culture growth after 96 hours, triplicate wells, three independent trials
E. coli DH5α = experiment: Minimal Inhibitory Concentration; format: cell-based, Escherichia coli; conditions: single AMP treatment, result in words
Rhodococcus rhodnii = experiment: Minimal Inhibitory Concentration; format: cell-based; conditions: single AMP treatment, result in words

GIGKFLHSAKKFGKAFVGEIMNS [Magainin, Magainin II]
pIC50 ([1]; read-out: IC50B, peptide B alone): 5.00

GNNRPVYIPQPRPPHPRL-NH2 [Apidaecin, Apidaecin 14]
pIC50 ([1]; read-out: IC50A, peptide A alone): 6.15

KWKLFKKIEKVGQNIRDGIIKAGPAVAVVGQATQIAK-NH2 [Cecropin A]
Growth inhibition of T. cruzi ([1]; single peptide, 96 hour treatment, 0 to 10 μM concentration range): ≤ 50%

QGYQGGYTRPFPRPPYGGGYHPVPVCTSCHRLSPLQARACCRQLGRCCDAKQTYG [Penaeidin, penaeidin]
Effect on E. coli in MIC assay (E. coli DH5α): did not have an effect
Effect on R. rhodnii in MIC assay (Rhodococcus rhodnii): did not have an effect
